Test results from ChEMBL document CHEMBL4507324 (2021).

Tests used:
Settings in all cases: Compound concentration 100.0 nM
[1] = test system: Fibroblast growth factor receptor 3 (Homo sapiens), P22607 [G697C]
[2] = biological target: Discoidin domain-containing receptor 2 (Homo sapiens) (UniProt Q16832)
[3] = biological target: Mitogen-activated protein kinase kinase kinase 7 (Homo sapiens) (UniProt O43318)
[4] = biological target: Calcium/calmodulin-dependent protein kinase type II subunit delta (Homo sapiens) (UniProt Q13557)
[5] = test system: Receptor-type tyrosine-protein kinase FLT3 (Homo sapiens), P36888 [D835V]
[6] = biological target: Serine/threonine-protein kinase Chk1 (Homo sapiens) (UniProt O14757)
[7] = biological target: Mitogen-activated protein kinase kinase kinase kinase 2 (Homo sapiens) (UniProt Q12851)
[8] = biological target: Casein kinase I isoform epsilon (Homo sapiens) (UniProt P49674)
[9] = biological target: Serine/threonine-protein kinase Nek7 (Homo sapiens) (UniProt Q8TDX7)
[10] = biological target: Tyrosine-protein kinase Yes (Homo sapiens) (UniProt P07947)
[11] = biological target: Dual serine/threonine and tyrosine protein kinase (Homo sapiens) (UniProt Q6XUX3)
[12] = biological target: Cyclin-dependent kinase 4 (Homo sapiens) (UniProt P11802)
[13] = biological target: Platelet-derived growth factor receptor beta (Homo sapiens) (UniProt P09619)
[14] = biological target: Microtubule-associated serine/threonine-protein kinase 1 (Homo sapiens) (UniProt Q9Y2H9)
[15] = biological target: Dual specificity testis-specific protein kinase 1 (Homo sapiens) (UniProt Q15569)
[16] = biological target: Activin receptor type-2B (Homo sapiens) (UniProt Q13705)
[17] = biological target: Homeodomain-interacting protein kinase 1 (Homo sapiens) (UniProt Q86Z02)
[18] = biological target: Mitogen-activated protein kinase 8 (Homo sapiens) (UniProt P45983)
[19] = biological target: TGF-beta receptor type-1 (Homo sapiens) (UniProt P36897)
[20] = biological target: Rho-associated protein kinase 2 (Homo sapiens) (UniProt O75116)
[21] = biological target: Serine/threonine-protein kinase haspin (Homo sapiens) (UniProt Q8TF76)
[22] = biological target: Mitogen-activated protein kinase kinase kinase 12 (Homo sapiens) (UniProt Q12852)
[23] = biological target: Serine/threonine-protein kinase PLK2 (Homo sapiens) (UniProt Q9NYY3)
[24] = biological target: Angiopoietin-1 receptor (Homo sapiens) (UniProt Q02763)
[25] = biological target: MAP kinase-activated protein kinase 5 (Homo sapiens) (UniProt Q8IW41)
[26] = biological target: Tyrosine-protein kinase TXK (Homo sapiens) (UniProt P42681)
[27] = biological target: Maternal embryonic leucine zipper kinase (Homo sapiens) (UniProt Q14680)
[28] = biological target: MAP/microtubule affinity-regulating kinase 3 (Homo sapiens) (UniProt P27448)
[29] = test system: Serine/threonine-protein kinase B-raf (Homo sapiens), P15056 [V600E]
[30] = biological target: Hepatocyte growth factor receptor (Homo sapiens) (UniProt P08581)
[31] = biological target: Mitogen-activated protein kinase kinase kinase 2 (Homo sapiens) (UniProt Q9Y2U5)
[32] = biological target: Casein kinase I isoform alpha (Homo sapiens) (UniProt P48729)
[33] = test system: Phosphatidylinositol 4,5-bisphosphate 3-kinase catalytic subunit alpha isoform (Homo sapiens), P42336 [I800L]
[34] = biological target: Testis-specific serine/threonine-protein kinase 3 (Homo sapiens) (UniProt Q96PN8)
[35] = biological target: Ephrin type-A receptor 1 (Homo sapiens) (UniProt P21709)
[36] = biological target: Megakaryocyte-associated tyrosine-protein kinase (Homo sapiens) (UniProt P42679)
[37] = biological target: Serine/threonine-protein kinase 36 (Homo sapiens) (UniProt Q9NRP7)
[38] = test system: Phosphatidylinositol 4,5-bisphosphate 3-kinase catalytic subunit alpha isoform (Homo sapiens), P42336 [Q546K]
[39] = biological target: Tyrosine-protein kinase JAK2 (Homo sapiens) (UniProt O60674)
[40] = biological target: Phosphatidylinositol 3-kinase catalytic subunit type 3 (Homo sapiens) (UniProt Q8NEB9)
[41] = biological target: Serine/threonine-protein kinase SIK3 (Homo sapiens) (UniProt Q9Y2K2)
[42] = biological target: Receptor-interacting serine/threonine-protein kinase 1 (Homo sapiens) (UniProt Q13546)
[43] = biological target: Protein kinase C epsilon type (Homo sapiens) (UniProt Q02156)
[44] = biological target: Serine/threonine-protein kinase BRSK1 (Homo sapiens) (UniProt Q8TDC3)
[45] = test system: Receptor-type tyrosine-protein kinase FLT3 (Homo sapiens), P36888 [R834Q]

Measured: residual activity

Activin receptor type-2B (Homo sapiens), sequence (Q13705 whole entry): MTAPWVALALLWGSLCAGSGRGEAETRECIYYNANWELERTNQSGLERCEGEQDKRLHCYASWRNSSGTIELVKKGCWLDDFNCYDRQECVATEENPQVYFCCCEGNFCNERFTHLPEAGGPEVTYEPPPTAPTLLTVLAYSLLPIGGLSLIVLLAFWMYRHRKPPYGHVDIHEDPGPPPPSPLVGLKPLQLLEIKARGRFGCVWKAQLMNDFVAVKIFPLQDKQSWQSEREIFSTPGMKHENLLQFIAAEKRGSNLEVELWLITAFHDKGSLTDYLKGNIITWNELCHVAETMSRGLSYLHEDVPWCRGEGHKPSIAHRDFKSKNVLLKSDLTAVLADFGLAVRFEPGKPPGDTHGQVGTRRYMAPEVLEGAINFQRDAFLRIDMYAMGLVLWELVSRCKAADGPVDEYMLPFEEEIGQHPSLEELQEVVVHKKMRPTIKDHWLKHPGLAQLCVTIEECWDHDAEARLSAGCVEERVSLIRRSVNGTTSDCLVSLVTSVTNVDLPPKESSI
Serine/threonine-protein kinase SIK3 (Homo sapiens), sequence (Q9Y2K2 whole entry, looked up): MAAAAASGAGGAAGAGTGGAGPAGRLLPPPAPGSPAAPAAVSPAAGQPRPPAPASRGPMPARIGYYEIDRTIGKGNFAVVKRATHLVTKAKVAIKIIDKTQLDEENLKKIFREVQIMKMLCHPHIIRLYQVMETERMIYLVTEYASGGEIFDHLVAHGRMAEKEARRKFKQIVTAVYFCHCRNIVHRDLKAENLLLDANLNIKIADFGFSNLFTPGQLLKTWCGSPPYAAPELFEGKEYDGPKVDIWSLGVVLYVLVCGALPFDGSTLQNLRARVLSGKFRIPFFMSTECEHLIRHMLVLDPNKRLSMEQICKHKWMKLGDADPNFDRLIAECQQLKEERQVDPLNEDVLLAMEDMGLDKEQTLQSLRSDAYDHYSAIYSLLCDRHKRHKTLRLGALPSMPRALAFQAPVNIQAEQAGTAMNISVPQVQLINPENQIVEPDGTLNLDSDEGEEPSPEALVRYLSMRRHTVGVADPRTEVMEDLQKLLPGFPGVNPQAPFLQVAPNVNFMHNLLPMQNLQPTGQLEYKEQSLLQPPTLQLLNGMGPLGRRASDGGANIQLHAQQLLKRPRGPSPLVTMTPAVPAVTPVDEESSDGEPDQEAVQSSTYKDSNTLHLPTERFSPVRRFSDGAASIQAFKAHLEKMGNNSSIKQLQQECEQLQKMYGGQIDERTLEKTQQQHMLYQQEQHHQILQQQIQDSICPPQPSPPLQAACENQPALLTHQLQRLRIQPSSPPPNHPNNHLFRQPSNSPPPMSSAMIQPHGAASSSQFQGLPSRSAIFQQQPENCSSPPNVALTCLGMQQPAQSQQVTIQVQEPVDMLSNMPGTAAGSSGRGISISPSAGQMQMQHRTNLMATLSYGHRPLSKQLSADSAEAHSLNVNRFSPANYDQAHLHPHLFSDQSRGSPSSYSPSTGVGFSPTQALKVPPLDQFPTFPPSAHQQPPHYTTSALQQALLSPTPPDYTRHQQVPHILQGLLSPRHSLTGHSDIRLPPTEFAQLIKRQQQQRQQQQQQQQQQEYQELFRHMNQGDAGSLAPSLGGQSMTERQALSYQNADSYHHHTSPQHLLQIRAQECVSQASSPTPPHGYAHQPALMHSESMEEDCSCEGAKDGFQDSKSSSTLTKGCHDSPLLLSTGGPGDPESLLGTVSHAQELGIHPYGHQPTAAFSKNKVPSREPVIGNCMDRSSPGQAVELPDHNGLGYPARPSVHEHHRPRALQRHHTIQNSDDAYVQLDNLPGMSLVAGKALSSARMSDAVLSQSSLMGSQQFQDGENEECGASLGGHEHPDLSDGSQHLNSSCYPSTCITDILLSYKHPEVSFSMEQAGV
Serine/threonine-protein kinase Nek7 (Homo sapiens), sequence (Q8TDX7 whole entry, looked up): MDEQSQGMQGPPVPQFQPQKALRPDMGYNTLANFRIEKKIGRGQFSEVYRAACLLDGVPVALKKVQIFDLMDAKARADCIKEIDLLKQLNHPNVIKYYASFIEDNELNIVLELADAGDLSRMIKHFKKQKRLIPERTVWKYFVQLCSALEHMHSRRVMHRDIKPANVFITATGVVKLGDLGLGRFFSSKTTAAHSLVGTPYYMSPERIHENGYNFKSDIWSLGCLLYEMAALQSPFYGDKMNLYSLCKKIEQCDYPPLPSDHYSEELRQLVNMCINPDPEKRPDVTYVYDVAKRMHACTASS
Mitogen-activated protein kinase kinase kinase 2 (Homo sapiens), sequence (Q9Y2U5 whole entry, canonical isoform): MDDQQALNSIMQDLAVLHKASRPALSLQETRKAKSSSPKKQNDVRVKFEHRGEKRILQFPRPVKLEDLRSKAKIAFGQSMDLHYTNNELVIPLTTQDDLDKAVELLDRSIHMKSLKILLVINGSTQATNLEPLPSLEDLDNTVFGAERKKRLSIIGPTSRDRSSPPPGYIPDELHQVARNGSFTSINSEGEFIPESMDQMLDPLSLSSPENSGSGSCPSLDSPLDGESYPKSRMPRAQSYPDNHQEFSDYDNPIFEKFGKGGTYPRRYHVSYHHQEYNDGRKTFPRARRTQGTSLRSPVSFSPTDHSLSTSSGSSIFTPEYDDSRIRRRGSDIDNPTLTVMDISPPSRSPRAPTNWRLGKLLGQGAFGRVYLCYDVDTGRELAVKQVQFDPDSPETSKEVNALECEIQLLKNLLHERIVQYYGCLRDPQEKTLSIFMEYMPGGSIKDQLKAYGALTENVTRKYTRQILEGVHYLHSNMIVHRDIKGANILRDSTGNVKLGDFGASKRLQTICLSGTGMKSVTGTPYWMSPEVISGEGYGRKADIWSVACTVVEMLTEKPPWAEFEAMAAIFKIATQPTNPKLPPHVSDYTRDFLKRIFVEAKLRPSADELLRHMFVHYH
Ephrin type-A receptor 1 (Homo sapiens), sequence (P21709 whole entry): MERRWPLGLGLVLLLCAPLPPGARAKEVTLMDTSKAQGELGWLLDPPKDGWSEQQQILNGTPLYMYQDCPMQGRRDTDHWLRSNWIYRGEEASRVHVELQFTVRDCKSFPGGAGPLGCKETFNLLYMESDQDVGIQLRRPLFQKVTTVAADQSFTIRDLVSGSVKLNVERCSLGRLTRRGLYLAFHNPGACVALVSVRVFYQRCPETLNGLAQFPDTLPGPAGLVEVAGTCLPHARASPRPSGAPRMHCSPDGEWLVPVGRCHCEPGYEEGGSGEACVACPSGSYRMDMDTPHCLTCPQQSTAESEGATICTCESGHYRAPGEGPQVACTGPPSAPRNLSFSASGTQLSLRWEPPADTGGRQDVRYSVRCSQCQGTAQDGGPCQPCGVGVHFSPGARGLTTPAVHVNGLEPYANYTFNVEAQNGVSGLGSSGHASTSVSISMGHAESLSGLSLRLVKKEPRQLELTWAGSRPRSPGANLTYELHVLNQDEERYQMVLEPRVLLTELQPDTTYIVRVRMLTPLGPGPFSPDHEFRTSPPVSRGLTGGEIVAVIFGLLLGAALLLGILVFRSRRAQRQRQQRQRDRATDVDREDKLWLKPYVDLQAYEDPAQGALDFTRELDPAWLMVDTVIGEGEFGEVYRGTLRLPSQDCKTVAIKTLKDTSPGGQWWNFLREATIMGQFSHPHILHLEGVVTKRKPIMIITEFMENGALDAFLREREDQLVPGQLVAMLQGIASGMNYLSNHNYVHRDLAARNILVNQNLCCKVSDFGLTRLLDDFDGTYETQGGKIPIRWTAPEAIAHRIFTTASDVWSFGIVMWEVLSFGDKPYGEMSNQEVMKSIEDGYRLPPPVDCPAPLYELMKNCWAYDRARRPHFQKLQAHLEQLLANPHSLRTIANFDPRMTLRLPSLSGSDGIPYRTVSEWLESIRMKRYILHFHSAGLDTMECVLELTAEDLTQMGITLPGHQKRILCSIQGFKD
Serine/threonine-protein kinase BRSK1 (Homo sapiens), sequence (Q8TDC3 whole entry): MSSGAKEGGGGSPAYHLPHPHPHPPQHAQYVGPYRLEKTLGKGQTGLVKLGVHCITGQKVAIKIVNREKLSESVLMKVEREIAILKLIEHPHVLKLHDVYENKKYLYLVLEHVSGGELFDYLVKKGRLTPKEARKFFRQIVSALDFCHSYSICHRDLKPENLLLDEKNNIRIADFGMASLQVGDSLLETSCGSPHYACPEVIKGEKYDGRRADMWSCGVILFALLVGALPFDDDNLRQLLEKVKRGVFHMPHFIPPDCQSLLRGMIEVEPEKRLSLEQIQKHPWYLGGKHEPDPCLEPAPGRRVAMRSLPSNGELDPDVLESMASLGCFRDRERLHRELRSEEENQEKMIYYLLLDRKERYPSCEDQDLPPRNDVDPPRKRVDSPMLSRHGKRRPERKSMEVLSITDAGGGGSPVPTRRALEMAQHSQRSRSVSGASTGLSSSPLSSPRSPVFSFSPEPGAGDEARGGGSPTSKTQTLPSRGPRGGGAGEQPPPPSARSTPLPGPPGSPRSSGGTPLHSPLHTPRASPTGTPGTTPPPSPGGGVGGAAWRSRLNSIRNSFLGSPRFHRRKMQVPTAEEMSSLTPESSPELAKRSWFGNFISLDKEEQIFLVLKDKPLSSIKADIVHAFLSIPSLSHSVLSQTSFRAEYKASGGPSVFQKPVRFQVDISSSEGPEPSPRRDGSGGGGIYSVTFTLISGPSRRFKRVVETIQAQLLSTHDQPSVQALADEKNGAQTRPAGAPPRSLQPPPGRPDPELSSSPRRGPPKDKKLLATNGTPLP
Mitogen-activated protein kinase 8 (Homo sapiens), sequence (P45983 whole entry): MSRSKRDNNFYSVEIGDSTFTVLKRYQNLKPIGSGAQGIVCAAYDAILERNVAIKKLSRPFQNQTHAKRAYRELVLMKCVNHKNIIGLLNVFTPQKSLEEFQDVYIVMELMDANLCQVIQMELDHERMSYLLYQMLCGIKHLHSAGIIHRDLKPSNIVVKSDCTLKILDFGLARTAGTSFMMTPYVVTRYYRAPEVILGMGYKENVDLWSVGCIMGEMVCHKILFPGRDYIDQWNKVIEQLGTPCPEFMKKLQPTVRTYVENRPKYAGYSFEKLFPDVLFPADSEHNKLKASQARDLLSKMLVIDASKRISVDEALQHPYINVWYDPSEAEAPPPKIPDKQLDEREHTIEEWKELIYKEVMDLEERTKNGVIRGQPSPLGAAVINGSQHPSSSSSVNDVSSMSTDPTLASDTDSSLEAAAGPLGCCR

CS(=O)(=O)N1CCCC(NC(=O)[C@H](CCC2CCCCC2)NC(=O)c2ccc(CNc3ncnc4c3nnn4-c3ccccc3)cc2)C1 (stereo not given in full) [SR-301]
active: [33] 44%
inactive: [1] 83% | [2] 100% | [3] 100% | [4] 93% | [5] 89% | [6] 100% | [7] 100% | [8] 100% | [9] 88% | [10] 98% | [11] 80% | [12] 91% | [13] 86% | [14] 100% | [15] 100% | [16] 83% | [17] 100% | [18] 85% | [19] 100% | [20] 100% | [21] 100% | [22] 100% | [23] 99% | [24] 73% | [25] 100% | [26] 77% | [27] 100% | [28] 100% | [29] 100% | [30] 68% | [31] 100% | [32] 99% | [34] 100% | [35] 95% | [36] 100% | [37] 97% | [38] 60% | [39] 100% | [40] 100% | [41] 78% | [42] 94% | [43] 63% | [44] 100% | [45] 94%

CS(=O)(=O)N1CCCC(NC(=O)[C@H](CCC2CCCCC2)NC(=O)c2ccc(CNC(=O)c3cnc4ccccn34)cc2)C1 (stereo not given in full) [SR-302]
active: [2] 0%
inactive: [1] 86% | [3] 94% | [4] 84% | [5] 61% | [6] 100% | [7] 92% | [8] 93% | [9] 100% | [10] 88% | [11] 100% | [12] 99% | [13] 100% | [14] 94% | [15] 93% | [16] 100% | [17] 100% | [18] 100% | [19] 84% | [20] 100% | [21] 74% | [22] 100% | [23] 100% | [24] 92% | [25] 100% | [26] 91% | [27] 100% | [28] 74% | [29] 51% | [30] 62% | [31] 100% | [32] 100% | [33] 100% | [34] 93% | [35] 93% | [36] 100% | [37] 100% | [38] 90% | [39] 100% | [40] 100% | [41] 100% | [42] 88% | [43] 83% | [44] 72% | [45] 100%
